What was measured:
[1] = tested on: Candida albicans; assay: Synergistic antifungal activity against FLC-resistant Candida albicans 540 assessed as MIC of FLC incubated for 48 hrs by broth microdilution method; format: functional
[2] = tested on: Candida albicans; assay: Antifungal activity against Candida albicans SC5314 assessed as fungal growth inhibition incubated for 48 hrs in presence of Cu2+ by broth microdilution method (reference value: […] ug/ml); format: functional

SMILES: CCN(CC)c1ccc(C(NC(=O)C(C)C)c2ccc3cccnc3c2O)cc1 (configuration not stated)
- MIC [1]: 0.25 µg/mL

SMILES: Oc1c(I)cc(Cl)c2cccnc12 [CLIOQUINOL]
- MIC [2]: 128 µg/mL

From ChEMBL document CHEMBL5375952, “Discovery of Novel 8-Hydroxyquinoline Derivatives with Potent In Vitro and In Vivo Antifungal Activity” (J Med Chem, 2023)
